In US7919517B2, “Indazole derivatives” (Kyowa Hakko Kirin Co., Ltd., priority 2003, dated 2011):
Counter-ions that a name gives are not always drawn.

Key:
Assay type in all cases: cell-based
[1] = test system: human acute myeloid leukemia cell line MV-4-11; assay: Cytostatic activity on leukemia cell line MV-4-11 (WST-1); conditions: 72 hours, MV-4-11 cells; for inhibition at 10 µM: Homo sapiens, MV4-11, 10 μmol/L, read-out: cytostatic rate MV-4-11 (%) (10 μmol/L)
How it was run: (§1)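 Cells in RPMI 1640/10% FBS were pre-cultured 4 h, then exposed to test compound at 10 μmol/L (0.1% DMSO) for 72 h at 37 °C. WST-1 read at 450 nm (690 nm reference); cytostatic rate = 100 − growth relative to DMSO control (100%) and medium blank (0%).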

[2] = test system: human acute myeloid leukemia cell line ML-1; assay: Cytostatic activity on leukemia cell line ML-1 (WST-1); conditions: 72 hours, ML-1 cells; for inhibition at 10 µM: Homo sapiens, ML1, 10 μmol/L, read-out: cytostatic rate ML-1 (%) (10 μmol/L)
How it was run: as §1

[3] = test system: human chronic myeloid leukemia cell line K562; assay: Cytostatic activity on leukemia cell line K562 (WST-1); conditions: 72 hours, K562 cells; for inhibition at 10 µM: Homo sapiens, 10 μmol/L, read-out: cytostatic rate K562 (%) (10 μmol/L)
How it was run: as §1

[4] = test system: human colon cancer cell line Colo205; assay: Cytostatic activity on solid carcinoma cell line Colo205 (WST-1); conditions: 72 hours, Colo205 cells; for inhibition at 10 µM: Homo sapiens, COLO 205, 10 μmol/L, read-out: cytostatic rate Colo205 (%) (10 μmol/L)
How it was run: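 Colo205 cells in RPMI 1640 with 10% FBS were pre-cultured 24 h, then exposed to compound at 10 μmol/L final (0.1% DMSO) for 72 h at 37° C. WST-1 was added for 2 h and A450 (ref 690 nm) read. Cytostatic rate = 100 − relative growth, with DMSO control set at 100% and medium blank at 0%.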

Structure (SMILES)	inhibition at 10 µM [1] [%]	inhibition at 10 µM [2] [%]	inhibition at 10 µM [3] [%]	inhibition at 10 µM [4] [%]	cytostatic rate MV-4-11 (%) (10 μmol/L) [1]	cytostatic rate ML-1 (%) (10 μmol/L) [2]	cytostatic rate K562 (%) (10 μmol/L) [3]	cytostatic rate Colo205 (%) (10 μmol/L) [4]
COCCN1CCN(C(=O)c2ccc(/C=C/c3n[nH]c4ccccc34)cc2)CC1=O [Compound 134, (E)-4-{4-[2-(1H-indazol-3-yl)vinyl]benzoyl}-1-(2-methoxyethyl)piperazin-2-one hydrochloride]	100	88	91	91				
CC(C)NC(=O)CN1CCN(C(=O)c2ccc(/C=C/c3n[nH]c4ccccc34)cc2)CC1 [Compound 135, (E)-1-{4-[2-(1H-indazol-3-yl)vinyl]benzoyl}-4-[2-oxo-2-(isopropylamino)ethyl]piperazine dihydrochloride]	99	79	93	87				
CC(CO)(CO)C(=O)N1CCN(C(=O)c2ccc(/C=C/c3n[nH]c4ccccc34)cc2)CC1 [Compound 136, (E)-4-(3-hydroxy-2-hydroxymethyl-2-methylpropionyl)-1-{4-[2-(1H-indazol-3-yl)vinyl]benzoyl}piperazine hydrochloride]	99	82	94	91				
CC(=O)N(C)CC(=O)N1CCN(C(=O)c2ccc(/C=C/c3n[nH]c4ccccc34)cc2)CC1 [Compound 138, (E)-4-(N-acetyl-N-methylaminoacetyl)-1-{4-[2-(1H-indazol-3-yl)vinyl]benzoyl}piperazine]	99	88	94	91				
O=C(c1ccc(/C=C/c2n[nH]c3ccccc23)cc1)N1CCN(C(=O)[C@@H]2CCCN2)CC1 [Compound 140, (S)-(E)-4-[(pyrrolidin-2-yl)carbonyl]-1-{4-[2-(1H-indazol-3-yl)vinyl]benzoyl}piperazine]	99	82	95	85				
CN1CCC(C(=O)N2CCN(C(=O)c3ccc(/C=C/c4n[nH]c5ccccc45)cc3)CC2)CC1 [Compound 143, (E)-4-[(1-methylpiperidin-4-yl)carbonyl]-1-{4-[2-(1H-indazol-3-yl)vinyl]benzoyl}piperazine]	100	84	95	92				
CN1CCCC1C(=O)N1CCN(C(=O)c2ccc(/C=C/c3n[nH]c4ccccc34)cc2)CC1 (centres unmarked) [Compound 145, (E)-4-[(1-methylpyrrolidin-2-yl)carbonyl]-1-{4-[2-(1H-indazol-3-yl)vinyl]benzoyl}piperazine]	99	85	94	92				
O=C(c1ccc(/C=C/c2n[nH]c3ccccc23)cc1)N1CCN(O)CC1 [Compound 147, (E)-4-Hydroxy-1-{4-[2-(1H-indazol-3-yl)vinyl]benzoyl}piperazine]	99	89	77	83				
CC(C)(C)OC(=O)NN1CCN(C(=O)c2ccc(/C=C/c3n[nH]c4ccccc34)cc2)CC1 [Compound 148, (E)-1-{4-[2-(1H-indazol-3-yl)vinyl]benzoyl}-4-(tert-butyloxycarbonylamino)piperazine]	98	81	91	83				
O=C(NN1CCN(C(=O)c2ccc(/C=C/c3n[nH]c4ccccc34)cc2)CC1)N1CCOCC1 [Compound 150, (E)-1-{4-[2-(1H-indazol-3-yl)vinyl]benzoyl}-4-(morpholinocarbonylamino)piperazine]	97	67	90	88				
O=C(c1ccc(/C=C/c2n[nH]c3ccccc23)cc1)N1CCN(c2c(N3CCCCC3)c(=O)c2=O)CC1 [Compound 155, (E)-3-piperidino-4-{[4-(2-(1H-indazol-3-yl)vinyl)benzoyl]piperazin-1-yl}-3-cyclobutene-1,2-dione]					97	79	96	88
O=C(c1ccc(/C=C/c2n[nH]c3ccccc23)cc1)N1CCN(c2c(N3CCOCC3)c(=O)c2=O)CC1 [Compound 156, (E)-3-morpholino-4-{[4-(2-(1H-indazol-3-yl)vinyl)benzoyl]piperazin-1-yl}-3-cyclobutene-1,2-dione]					99	85	94	92
N[C@@H]1CCN(C(=O)c2ccc(/C=C/c3n[nH]c4ccccc34)cc2)C1 [Compound 158, (R)-(E)-1-{4-[2-(1H-Indazol-3-yl)vinyl]benzoyl}-3-aminopyrrolidine]	98	80	90	91				
N[C@H]1CCN(C(=O)c2ccc(/C=C/c3n[nH]c4ccccc34)cc2)C1 [Compound 159, (S)-(E)-1-{4-[2-(1H-indazol-3-yl)vinyl]benzoyl}-3-aminopyrrolidine]	99	86	93	92				
